Data taken from patent publication US20170296568A1, “SIRTUIN GENE POTENTIATOR, AND PHARMACEUTICAL PRODUCT, COSMETIC PRODUCT, AND FOOD PRODUCT USING SAME” (MORISHITA JINTAN CO., LTD., priority 2012, published 2017).

Assays:
sirtuin gene hSIRT1 = test: Expression level of endogenous sirtuin gene hSIRT1 in Caco-2 cells (quantitative PCR, relative to β-actin); format: cell-based, human; details: 10 μM, 2 days, qPCR normalised to β-actin, FIG. 2
Method: Caco-2 cells were plated at 3.0×10^5 cells for a 5-mL dish. After 24 hours, each polyphenol was added to be 10 μM. Note that as a negative control, none of polyphenol nor terpenoid was added, and as a positive control, 10 μM resveratrol was added. At 2 days after this treatment, RNA was collected.
The total RNA was prepared using High Pure RNA Isolation Kit (manufactured by Roche, Indianapolis, Ind., USA). For the procedures from the total RNA preparation to the reverse transcription, the reagents and tools used were RNase-free. Cells were prepared in a sub-confluent to confluent condition in a cell culture dish (Greiner bio-one, Monroe, N.C., USA). The medium was completely removed, 200 μL of PBS, and 400 μL of cell lysis solution, which was contained in High Pure RNA Isolation Kit, were added, and the entire dish was well covered by the cell lysis solution. When the viscosity of the cell lysis solution was decreased, the cell lysis solution was collected into a 1.5-mL sample tube. The collected sample was well suspended. A filter tube and a collection tube, which were contained in High Pure RNA Isolation Kit, were assembled, and the sample was pipetted into a buffer reservoir in the upper portion of the filter tube, and was centrifuged at 8,000×g for 15 seconds. The flowthrough liquid into the collection tube was discarded, and the filter tube and the collection tube were again assembled. Then, 90 μL of DNase incubation buffer per sample was pipetted into a sterile reaction tube, and 10 μL of DNase I was added into the tube and mixed. The mixture liquid was pipetted into the buffer reservoir in the upper portion of the filter tube, was added on the glass fiber fleece in the filter tube, and was incubated at room temperature for 15 minutes. Then, 500 μL of wash buffer I, which was contained in High Pure RNA Isolation Kit, was added to the buffer reservoir in the upper portion of the filter tube, and was centrifuged at 8,000×g for 15 seconds. The flowthrough liquid into the collection tube was discarded, and the filter tube and the collection tube were again assembled. Then, 500 μL of wash buffer II was added to the buffer reservoir in the upper portion of the filter tube, and centrifugation was performed at 8,000×g for 15 seconds. The liquid discharged to the collection tube was discarded, and the filter tube and the collection tube were again assembled. Then, 200 μL of wash buffer II was added to the buffer reservoir in the upper portion of the filter tube, and centrifugation was performed at 13,000×g for 2 minutes, after which a remaining wash buffer in the filter tube was removed. The collection tube was discarded, the filter tube was inserted into a sterile reaction tube, and 50 μL of elution buffer was added in the filter tube, and centrifugation was performed at 8,000×g for 1 minute. The eluate obtained by the procedures was taken as an RNA solution. The concentration of RNA in the solution was calculated based on the light absorbance at 260 nm with a NanoDrop 2000/2000c spectrophotometer (Thermo Scientific, Waltham, Mass., USA), for use in subsequent experiments.
Then, 5 pmol of oligo(dT)20 primer was added to 1.0 μg of total RNA extracted from the cells, and sterile water was further added thereto so that the total liquid amount was 13 μL. Heat treatment was performed using a thermal cycler (Peltier Thermal Cycler PTC-200, MJ Research, Watertown, Mass., USA) at 65° C. for 5 minutes, and the resultant was immediately transferred in ice to quench it. During this treatment, the reverse transcriptase reaction program was advanced to the 42° C. stage and was temporarily stopped. A mixture solution obtained by mixing 4 μL of reverse transcriptase reaction buffer solution, 2 μL of 1 mM dNTPs (Amershan Pharmacia Biotech., Buckinghamshire, UK), and 0.5 μL of reverse transcriptase ReverTra Ace (TOYOBO, Osaka, Japan) per sample was added to and gently mixed with the sample on ice after 5 minutes. […]

hSIRT1 promoter = test: Enhancing the hSIRT1 promoter: EGFP fluorescence intensity in HaCaT-hSIRT1p-EGFP cells by flow cytometry; format: cell-based, human; details: 10 μM in DMSO, 24 hours after addition, FIG. 4
Method: HaCaT cells (human epidermis keratinocyte-derived cell lines, provided by Dr. Takumi Miura, National Center for Child Health and Development) were cultured using a Dalbecco's Modified Eagle Medium (DMEM) medium (Nissui Pharmaceutical Co., Ltd, Tokyo) supplemented with 10% FBS, 100,000 U/L penicillin (Meiji, Tokyo), 100 mg/L streptomycin (Meiji), and 2.0 g/L NaHCO3. These cells were subcultured at 37° C. in the presence of 5% CO2.
HaCaT cell lines (HaCaT-hSIRT1p-EGFP cells) into which the vector (phSIRT1-EGFP) described in Reference Example 1 was integrated were prepared as below.
The HaCaT cells were disseminated at 9.0×10^5 in a φ60-mm dish, and were cultured in 10% FBS supplemented DMEM medium. Cells as a control were prepared in a similar manner. After 24 hours, 8 μg of phSIRT1p-EGFP was added to and mixed with 300 μL of DMEM medium, 24 μL of Hilymax (manufactured by Dojindo Laboratories), which is a transfection reagent, was further added and mixed therewith, and the mixture was incubated for 15 minutes at room temperature. Subsequently, the total amount was added to the HaCaT cells. After 3 hours, the medium was replaced by 10% FBS supplemented DMEM medium.
At 24 hours after the gene introduction, the medium was replaced by 10% FBS supplemented DMEM medium containing 750 μg/mL of G418 (Wako Pure Chemical Industries, Ltd.). After visually confirming under a microscope that all the control non-treated HaCaT cells were killed, the subculture was continued using 10% FBS supplemented DMEM containing 150 μg/mL of G418.
It was confirmed with flow cytometry that the phSIRT1p-EGFP vector was reliably transferred inro the cells after the subculture. The above-described cells and the control non-treated HaCaT cells were plated at 7.0×10^5 per a φ60-mm dish, respectively. After 24 hours, the cells were picked up and well suspended in 2 mL of 5% FBS supplemented DMEM medium, and were filtered through a Nylon Mesh (Kyoshin Rikoh Inc., Japan), and the EGFP fluorescence intensity thereof was measured with a Flow Cytometer (EPICS, BeckmanCoulter). The analysis was performed using software FlowJo (Tree Star, Ashland Oreg.), so that the EGFP fluorescence intensity of each cell was represented as a histogram.
HaCaT-hSIRT1p-EGFP cells were plated at 1.7×10^6 cells in a φ60-mm dish (as measured by flow cytometry) or at 2.0×10^4 cells/well in a 96-well plate (as measured by an IN Cell Analyzer 1000). After 24 hours, 10 μM of each polyphenol or terpenoid dissolved in DMSO (Wako Pure Chemical Industries, Ltd.) was added thereto. Note that as a negative control, the same amount of DMSO was added without polyphenol or terpenoid, and as a positive control, 10 μM resveratrol was added. At 24 hours after the addition of the various polyphenols or terpenoids or the controls, the fluorescence intensity was measured by flow cytometry.

SMILES	relative gene expression level of hSIRT1 (sirtuin gene hSIRT1)	EGFP fluorescence intensity (hSIRT1 promoter activity) (hSIRT1 promoter)
O=C1O[C@H]2[C@@H]3OC(=O)c4cc(O)c(O)c(O)c4-c4c(O)c(O)c5oc(=O)c6c(c(O)c(O)c7oc(=O)c4c5c76)-c4c(cc(O)c(O)c4O)C(=O)OC[C@H]3OC(O)[C@@H]2OC(=O)c2cc(O)c(O)c(O)c2-c2c1cc(O)c(O)c2O (mixture of isomers) [punicalagin]	hSIRT1 transcription enhancing effect was observed	hSIRT1 expression effect on skin epidermis cells was seen
O=C1OC[C@H]2OC(O)[C@H](O)[C@@H](O)[C@@H]2OC(=O)c2cc(O)c(O)c(O)c2-c2c(O)c(O)c3oc(=O)c4c(c(O)c(O)c5oc(=O)c2c3c54)-c2c1cc(O)c(O)c2O (mixture of isomers) [punicalin]	hSIRT1 transcription enhancing effect was observed	hSIRT1 expression effect on skin epidermis cells was seen
O=c1c(O)c(-c2ccc(O)c(O)c2)oc2cc(O)ccc12 [fisetin]	hSIRT1 transcription enhancing effect was observed	hSIRT1 expression effect on skin epidermis cells was seen
C[C@@]12C=Cc3occc3[C@H]1CC[C@@]13C[C@@H](CC[C@H]12)[C@@](O)(CO)C3 [kahweol]	hSIRT1 transcription enhancing effect was observed	hSIRT1 expression effect on skin epidermis cells was seen
O=c1oc2cc(O)ccc2c2ccc(O)cc12 [urolithin A]	hSIRT1 transcription enhancing effect was observed	hSIRT1 expression effect on skin epidermis cells was seen
